These are literature values, as cited in PMC8725427 (Cellulose (London, England), 2022).

As usually defined, the IC50 is the point on the concentration scale where inhibition reaches its midpoint. A word on the EC50: it is the concentration at which the effect is half-maximal.

The conditions of series [1]: in vitro, over a period concerned; ref Vedula et al. ([2016]).
The conditions of series [2]: from nanoliposomal carrier, simulated lung fluid; ref Vartak et al. ([2021]).
The conditions of series [3]: carboxymethyl cellulose 2% (w/v) in PBS medium; ref Gunathilake et al. [2020b].
Another series concerns healthy organs. As to conditions: doses as high as 8 g/day; ref Almosa et al. [2020].
Another series has as its target HIV-1 integrase. The following applies: read-out: IC50 to inhibit the HIV-1 integrase; ref Mazumder et al. [1995].
For the next series, the system named is influenza A virus (IAV). The following applies: ref Chen et al. [2010].
In the next series the test system is chikungunya virus. As to conditions: read-out: IC50 for chikungunya virus; ref von Rhein et al. [2016].
Series [4] has as its system vesicular stomatitis virus. As to conditions: read-out: IC50 for vesicular stomatitis virus.
The subject of a further series is influenza A virus. The following applies: read-out: IC50 for influenza A virus; ref Richart et al. [2018].
In series [5] the test system is transmissible gastroenteritis virus. As to conditions: read-out: IC50 for transmissible gastroenteritis virus; ref Li et al. [2020].
For another series, the system named is SARS-CoV-1. The following applies: read-out: EC50 for SARS-CoV-1 replication inhibition.

`Nc1nc2c(ncn2COCCO)c(=O)[nH]1` [ACV, acyclovir]: the “Percentage of drug release” value in series [1] is about 5%.
On to `CCC(CC)COC(=O)[C@H](C)N[P@](=O)(OC[C@H]1O[C@@](C#N)(c2ccc3c(N)ncnn23)[C@H](O)[C@@H]1O)Oc1ccccc1` [Remdesivir, remdesivir], for which the “Time to complete drug release” value in series [2] is reported as at most 50 h.
For `COc1cc(/C=C/C(=O)CC(=O)/C=C/c2ccc(O)c(OC)c2)ccc1O` [curcumin], in series [3], the “Curcumin solubility in carboxymethyl cellulose medium” value is 147 ± 5.66 µg/mL. The “Lethal effect on healthy organs” value with healthy organs is recorded as “no lethal effect”. In addition, the IC50 at HIV-1 integrase was 40 µM; in the series on chikungunya virus, 10.8 µM; in series [4], 4.5 µM; in the series on influenza A virus, about 0.2 µM; in series [5], 8.6 µM. The “Effective dose against influenza A virus (IAV)” value in the series with influenza A virus (IAV) is on record as ~ 10 µM. In addition, in the series with SARS-CoV-1, the half-maximal effective concentration (EC50) is over 10 µM.
